The nature of the assay: Inhibition of hemagglutininin-tagged HIV1 Rev protein nuclear export in human HeLa cells assessed as localization by indirect fluorescent antibody technique. The class given is cell-based, Human immunodeficiency virus 1.
On to `CC(=O)OCC1=CO[C@@H](OC(=O)CC(C)C)[C@H]2[C@@H]1C[C@H](OC(=O)CC(C)C)[C@]21CO1`, for which the IC50 – broadly, the concentration that gives 50% inhibition – is 4400 nM.

For the molecule `CCCCOCC1=CO[C@@H](OC(=O)CC(C)C)[C@H]2[C@@H]1C[C@H](OC(=O)CC(C)C)[C@]21CO1`, the IC50 amounted to 3300 nM.

Consider `CC(=O)OCC1=CO[C@@H](OC(C)=O)[C@H]2[C@@H]1C[C@H](OC(=O)CC(C)C)[C@]21CO1`, for which the IC50 stood at 1000 nM.

As to `CC(=O)OCC1=CO[C@@H](OC(=O)CC(C)C)[C@H]2[C@@H]1C[C@H](OC(C)=O)[C@]21CO1`, the IC50 was found to be 2600 nM.

`CC(=O)OCC1=CO[C@@H](OC(=O)CC(C)C)[C@H]2C1=C[C@H](OC(=O)CC(C)C)[C@]21CO1` [VALTRATE]: the IC50 came out at 2500 nM.

For the origin of these results see ChEMBL document CHEMBL1212870, “Concise synthesis of 5,6-dihydrovaltrate leading to enhanced Rev-export inhibitory congener” (Bioorg Med Chem, 2010).
